System: Methicillin resistant Staphylococcus aureus (MRSA) biofilms
Experiment: MRSA biofilm deep partial thickness wound model
Format: in vivo
Conditions: 24 hours after treatment; for reduction of MRSA counts in wounds: porcine wounds
Experimental: Rectangular wounds measuring (10 mm×7 mm×0.5 mm) were made on the paravertebral and thoracic area (porcine) with a specialized electrokeratome fitted with a 7 mm blade. Wounds were inoculated with 250 μL of a 10^6 CFU/ml suspension and covered individually with a polyurethane film dressing to allow for biofilm formation. After 24 hours, the dressings were removed and wounds were randomly assigned to one of the following treatment groups: 1) untreated control, 2) ErYag, 3) ErYag plus gentamycin or 3) gentamycin alone. After treatment the wounds were covered with a new polyurethane film dressing and after 24 hours wounds were recovered for MRSA counts using a well published scrub technique. Oxicillin resistance screening agar (ORSAB) was used to isolate MRSA from the wounds. All plates were incubated aerobically overnight (16-24 hours) at 37° C., after which the number of viable colonies will be counted.
Methicillin resistant Staphylococcus aureus (MRSA) biofilms were created using a deep partial thickness wound model (described above). Wounds were randomly assigned to one of the following treatment groups: 1) untreated control, 2) ErYag, 3) ErYag plus gentamycin or 3) gentamycin alone. Twenty four hours after treatment, MRSA was recovered. […] However in combination (Laser+gentamycin) were able to reduce MRSA counts by 1.72 Log CFU/ml.

[1] = in combination with ErYag laser

Substance: gentamycin
- reduction of MRSA counts in wounds (gentamycin alone): 0.6 Log CFU/ml
- reduction in MRSA [1]: 98.09%
- reduction of MRSA counts in wounds [1]: 1.72 Log CFU/ml

From patent US20140303546A1, “LASER ASSISTED DELIVERY OF FUNCTIONAL CELLS, PEPTIDES AND NUCLEOTIDES” (priority 2011, published 2014)
